Source: US20240116985A1, “STAPLED PEPTIDES AND METHODS THEREOF” (priority 2020, published 2024)

The compounds below were run against T1, full-length beta-Catenin (Uniprot ID P35222) (Homo sapiens, UniProt P35222) (assay: Fluorescence polarization IC50 (beta-catenin / 5FAM-TCF4 10-53 competition)). Conditions: fluorescence polarization; read-out: beta-Catenin FP IC50.
T1 construct: 10 nM full-length beta-Catenin (Uniprot ID P35222)
T1 sequence (P35222 1-781): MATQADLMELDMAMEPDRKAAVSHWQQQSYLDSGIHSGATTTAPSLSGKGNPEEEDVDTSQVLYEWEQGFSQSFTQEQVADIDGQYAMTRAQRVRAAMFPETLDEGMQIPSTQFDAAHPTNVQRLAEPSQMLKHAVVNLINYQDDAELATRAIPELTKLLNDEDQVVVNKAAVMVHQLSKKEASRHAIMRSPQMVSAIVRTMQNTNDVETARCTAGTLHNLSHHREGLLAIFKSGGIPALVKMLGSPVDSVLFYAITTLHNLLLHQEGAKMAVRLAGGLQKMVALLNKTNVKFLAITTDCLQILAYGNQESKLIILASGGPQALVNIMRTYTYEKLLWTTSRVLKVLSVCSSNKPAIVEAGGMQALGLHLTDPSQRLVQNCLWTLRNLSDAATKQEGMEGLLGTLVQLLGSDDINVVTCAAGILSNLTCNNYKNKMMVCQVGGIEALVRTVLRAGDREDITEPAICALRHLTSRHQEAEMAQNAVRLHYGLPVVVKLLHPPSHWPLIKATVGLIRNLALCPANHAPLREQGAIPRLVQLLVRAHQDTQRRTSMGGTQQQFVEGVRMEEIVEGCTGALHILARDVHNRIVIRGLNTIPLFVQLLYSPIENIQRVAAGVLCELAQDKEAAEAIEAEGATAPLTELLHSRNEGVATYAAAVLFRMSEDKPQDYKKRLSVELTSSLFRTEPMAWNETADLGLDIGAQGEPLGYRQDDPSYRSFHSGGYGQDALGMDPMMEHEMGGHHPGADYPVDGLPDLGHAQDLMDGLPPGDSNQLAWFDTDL
Format: binding

Compound | IC50 [µM]
CC(=O)N1CCC[C@]12CCCCCCC1(CCCCCCOC(=O)N3CC(C(=O)N[C@@H](Cc4ccsc4)C(=O)N[C@@H](Cc4csc5ccccc45)C(=O)N[C@@H](CCC(N)=O)C(N)=O)(C3)NC(=O)[C@H](CC(N)=O)NC(=O)[C@H](Cc3ccccc3)NC(=O)[C@H](C)NC(=O)[C@H](C)NC(=O)[C@H](CC(=O)O)NC(=O)[C@H](CC(=O)O)NC1=O)NC(=O)[C@H](CC(C)(C)C)NC(=O)[C@H](CC(=O)O)NC2=O (stereo partly drawn) [I-1831, Ac-PL3-Asp-Npg-B5-Asp-Asp-Ala-Ala-Phe-Asn-Az-3Thi-BztA-Gln-NH2] | 1.63
CC(=O)N1CCC[C@]12CC=CCCCC1(CCCC=CCCCOC(=O)N3CC[C@@](C(=O)N[C@@H](Cc4ccsc4)C(=O)N[C@@H](Cc4csc5ccccc45)C(=O)N[C@@H](C)C(N)=O)(C3)NC(=O)[C@H](CC(N)=O)NC(=O)[C@H](Cc3ccccc3)NC(=O)[C@H](C)NC(=O)C(C)(C)NC(=O)[C@H]([C@@H](C)O)NC(=O)[C@H](CC(N)=O)NC1=O)NC(=O)[C@H](CC(C)(C)C)NC(=O)[C@H](CC(=O)O)NC2=O (stereo partly drawn) [I-2411, Ac-PL3-Asp-Npg-B5-Asn-Thr-Aib-Ala-Phe-Asn-PyrS2-3Thi-BztA-Ala-NH2] | 0.14
CC(=O)N1CCC[C@]12CC=CCCCC1(CCCC=CCCCOC(=O)N3CC[C@@](C(=O)N[C@@H](Cc4ccsc4)C(=O)N[C@@H](Cc4csc5ccccc45)C(=O)N[C@@H](CCC(N)=O)C(N)=O)(C3)NC(=O)[C@H](CC(C)C)NC(=O)[C@H](Cc3ccccc3)NC(=O)[C@H](C)NC(=O)[C@H](C)NC(=O)[C@H](CCc3ccc(O)cc3)NC(=O)[C@H](CC(=O)O)NC1=O)NC(=O)[C@H](CC(C)(C)C)NC(=O)[C@H](CC(=O)O)NC2=O (stereo partly drawn) [I-1787, Ac-PL3-Asp-Npg-B5-Asp-hTyr-Ala-Ala-Phe-Leu-PyrS2-3Thi-BztA-Gln-NH2] | 0.776
CC(=O)N1CCC[C@]12CCCCCCC1(CCCCCCCCOC(=O)N3CC[C@@](C(=O)N[C@@H](Cc4ccsc4)C(=O)N[C@@H](Cc4csc5ccccc45)C(=O)N[C@@H](Cc4ccccc4)C(N)=O)(C3)NC(=O)[C@H]([C@@H](C)O)NC(=O)[C@H](Cc3ccccc3)NC(=O)[C@H](C)NC(=O)[C@H](C)NC(=O)[C@H](CN(CC(=O)O)CC(F)(F)F)NC(=O)[C@H](CC(=O)O)NC1=O)NC(=O)[C@H](CC(C)(C)C)NC(=O)[C@H](CC(=O)O)NC2=O (stereo partly drawn) [I-1756, Ac-PL3-Asp-Npg-B5-Asp-TfeGA-Ala-Ala-Phe-Thr-PyrS2-3Thi-BztA-Phe-NH2] | 0.329
CC(=O)N1CCC[C@]12CC=CCCCC1(CCCC=CCCCOC(=O)N3CC[C@@](C(=O)N[C@@H](Cc4ccsc4)C(=O)N[C@@H](Cc4csc5ccccc45)C(=O)N[C@@H](CC(C)C)C(N)=O)(C3)NC(=O)[C@H](CC(N)=O)NC(=O)[C@H](Cc3ccccc3)NC(=O)[C@H](C)NC(=O)C(C)(C)NC(=O)[C@H]([C@@H](C)O)NC(=O)[C@H](CC(N)=O)NC1=O)NC(=O)[C@H](CC(C)(C)C)NC(=O)[C@H](CC(=O)O)NC2=O (stereo partly drawn) [I-2479, Ac-PL3-Asp-Npg-B5-Asn-Thr-Aib-Ala-Phe-Asn-PyrS2-3Thi-BztA-Leu-NH2] | 0.627
CC(=O)N1CCC[C@]12CC=CCCCC1(CCCC=CCCCOC(=O)N3CC[C@@](C(=O)N[C@@H](Cc4ccsc4)C(=O)N[C@@H](Cc4csc5ccccc45)C(=O)N[C@@H](CCC(N)=O)C(N)=O)(C3)NC(=O)[C@H](CC(N)=O)NC(=O)[C@H](Cc3ccccc3)NC(=O)C(C)(C)NC(=O)[C@H](C)NC(=O)[C@H]([C@@H](C)O)NC(=O)[C@H](CC(N)=O)NC1=O)NC(=O)[C@H](CC(C)(C)C)NC(=O)[C@H](CC(=O)O)NC2=O (stereo partly drawn) [I-2339, Ac-PL3-Asp-Npg-B5-Asn-Thr-Ala-Aib-Phe-Asn-PyrS2-3Thi-BztA-Gln-NH2] | 2.82
CC(=O)N1CCC[C@]12CC=CCCCC1(CCCC=CCCCOC(=O)N3CC[C@@](C(=O)N[C@@H](Cc4ccsc4)C(=O)N[C@@H](Cc4csc5ccccc45)C(=O)N[C@@H](Cc4c[nH]cn4)C(N)=O)(C3)NC(=O)[C@H](CCC(N)=O)NC(=O)[C@H](Cc3ccccc3)NC(=O)[C@H](C)NC(=O)[C@H](C)NC(=O)[C@H](CC(=O)O)NC(=O)[C@H](CC(=O)O)NC1=O)NC(=O)[C@H](CC(C)(C)C)NC(=O)[C@H](CC(=O)O)NC2=O (stereo partly drawn) [I-1460, Ac-PL3-Asp-Npg-B5-Asp-Asp-Ala-Ala-Phe-Gln-PyrS2-3Thi-BztA-His-NH2] | 0.007
CC(=O)N1CCC[C@]12CCCCCC[C@@](C)(C(=O)N[C@@H](CC(=O)O)C(=O)N[C@@H](CC(=O)O)C(=O)N[C@@H](C)C(=O)N[C@@H](C)C(=O)N[C@@H](Cc1ccccc1)C(=O)N[C@@H](CC(C)C)C(=O)NC(C)(C)C(=O)N[C@@H](Cc1ccsc1)C(=O)N[C@@H](Cc1csc3ccccc13)C(=O)N[C@@H](CCC(N)=O)C(N)=O)NC(=O)[C@H](CC(C)(C)C)NC(=O)[C@H](CC(=O)O)NC2=O [I-1809, Ac-PL3-Asp-Npg-S5-Asp-Asp-Ala-Ala-Phe-Leu-Aib-3Thi-BztA-Gln-NH2] | 1.95
CC(=O)N1CCC[C@]12CC=CCCCC1(CCCC=CCCCOC(=O)N3CC[C@@](C(=O)N[C@@H](Cc4ccsc4)C(=O)N[C@@H](Cc4csc5ccccc45)C(=O)N[C@@H](Cc4ccccc4)C(N)=O)(C3)NC(=O)[C@H](CC(C)C)NC(=O)[C@H](Cc3ccccc3)NC(=O)[C@H](C)NC(=O)[C@H](Cc3c[nH]cn3)NC(=O)[C@H](Cc3cccc(C(=O)O)c3)NC(=O)[C@H](CC(=O)O)NC1=O)NC(=O)[C@H](CC(C)(C)C)NC(=O)[C@H](CC(=O)O)NC2=O (stereo partly drawn) [I-1910, Ac-PL3-Asp-Npg-B5-Asp-3COOHF-His-Ala-Phe-Leu-PyrS2-3Thi-BztA-Phe-NH2] | 0.017
CC(=O)N1CCC[C@]12CCCCCCC1(CCCCCCCCOC(=O)N3CC[C@@](C(=O)N[C@@H](Cc4ccsc4)C(=O)N[C@@H](Cc4csc5ccccc45)C(=O)N[C@@H](CC(C)C)C(N)=O)(C3)NC(=O)[C@H](CC(C)C)NC(=O)[C@H](Cc3ccccc3)NC(=O)[C@H](C)NC(=O)[C@H](C)NC(=O)[C@H](CN(CC(=O)O)CC(F)(F)F)NC(=O)[C@H](CC(=O)O)NC1=O)NC(=O)[C@H](CC(C)(C)C)NC(=O)[C@H](CC(=O)O)NC2=O (stereo partly drawn) [I-1753, Ac-PL3-Asp-Npg-B5-Asp-TfeGA-Ala-Ala-Phe-Leu-PyrS2-3Thi-BztA-Leu-NH2] | 0.802
CC(C)C[C@@H]1NC(=O)[C@H](Cc2ccccc2)NC(=O)[C@H](C)NC(=O)[C@H](C)NC(=O)[C@H](Cc2cccc(C(=O)O)c2)NC(=O)[C@H](CC(=O)O)NC(=O)C2(CCCCCCCCOC(=O)N3CC[C@@](C(=O)N[C@@H](Cc4ccccc4C(F)(F)F)C(=O)N[C@@H](Cc4csc5ccccc45)C(=O)N[C@@H](CCC(N)=O)C(N)=O)(C3)NC1=O)CCCCCC[C@@]13CCCN1C(=O)CCCCC[C@H](NC(=O)[C@H](CC(=O)O)NC3=O)C(=O)N2 (stereo partly drawn) [I-2530, 4pentenyl-PL3-Asp-AllylGly-B5-Asp-3COOHF-Ala-Ala-Phe-Leu-PyrS2-2F3MeF-BztA-Gln-NH2] | 0.102
CC(=O)N1CCC[C@]12CC=CCCCC1(CCCC=CCCCOC(=O)N3CC[C@@](C(=O)N[C@@H](CC4CCCCC4)C(=O)N[C@@H](Cc4csc5ccccc45)C(=O)N[C@@H](CCC(N)=O)C(N)=O)(C3)NC(=O)[C@H](CC(C)C)NC(=O)[C@H](Cc3ccccc3)NC(=O)[C@H](C)NC(=O)[C@H](CCCCNC(C)C)NC(=O)[C@H](CCC(N)=O)NC(=O)[C@H](CC(=O)O)NC1=O)NC(=O)[C@H](CC(C)(C)C)NC(=O)[C@H](CC(N)=O)NC2=O (stereo partly drawn) [I-1651, Ac-PL3-Asn-Npg-B5-Asp-Gln-iPrLys-Ala-Phe-Leu-PyrS2-Cha-BztA-Gln-NH2] | 3.97
CC(=O)N1CCC[C@H]1C(=O)N[C@@H](CC(=O)O)C(=O)N[C@@H](CC(C)(C)C)C(=O)N[C@]1(C)CCC=CCCCOC(=O)N2CC[C@@](C(=O)N[C@@H](Cc3ccsc3)C(=O)N[C@@H](Cc3csc4ccccc34)C(=O)N[C@@H](CCC(N)=O)C(N)=O)(C2)NC(=O)[C@H](CC(C)C)NC(=O)[C@H](Cc2ccccc2)NC(=O)[C@H](C)NC(=O)[C@H](C)NC(=O)[C@H](CC(=O)O)NC(=O)[C@H](CC(=O)O)NC1=O [I-1989, Ac-Pro-Asp-Npg-R4-Asp-Asp-Ala-Ala-Phe-Leu-PyrS2-3Thi-BztA-Gln-NH2] | 0.186
CC(=O)N1CCC[C@]12CC=CCCCC1(CCCC=CCCCOC(=O)N3CC[C@@](C(=O)N[C@@H](Cc4ccsc4)C(=O)N[C@@H](Cc4cccc(F)c4F)C(=O)N[C@@H](CO)C(N)=O)(C3)NC(=O)[C@H](CC(C)C)NC(=O)[C@H](Cc3ccccc3)NC(=O)[C@H](C)NC(=O)[C@H](C)NC(=O)[C@H](CC(=O)O)NC(=O)[C@H](CC(=O)O)NC1=O)NC(=O)[C@H](CC(C)(C)C)NC(=O)[C@H](CC(=O)O)NC2=O (stereo partly drawn) [I-1426, Ac-PL3-Asp-Npg-B5-Asp-Asp-Ala-Ala-Phe-Leu-PyrS2-3Thi-23FF-Ser-NH2] | 0.203
CCCCCCCC(=O)N1CCC[C@]12CC=CCCCC1(CCCC=CCCCCCC[C@@](C)(C(=O)N[C@@H](Cc3ccccc3Cl)C(=O)N[C@@H](Cc3csc4ccccc34)C(=O)N[C@@H](CCC(N)=O)C(N)=O)NC(=O)[C@H]([C@@H](C)O)NC(=O)[C@H](Cc3ccccc3)NC(=O)[C@H](C)NC(=O)[C@H](C)NC(=O)[C@H](CC(=O)O)NC(=O)[C@H](CC(=O)O)NC1=O)NC(=O)[C@H](CC(C)(C)C)NC(=O)[C@H](CC(=O)O)NC2=O (stereo partly drawn) [I-1254, Oct-PL3-Asp-Npg-B5-Asp-Asp-Ala-Ala-Phe-Thr-S8-2C1F-BztA-Gln-NH2] | 0.53
